Patent US11596622B2, “Mazindol treatment for heroin dependence and substance use disorder” (NLS Pharmaceutics AG, priority 2017, dated 2023)

Assays:
[1] = tested on: Sprague-Dawley rats; test: Naloxone precipitated withdrawal syndrome of heroin; assay type: in vivo
Protocol: The abrupt cessation of chronic opiate use results in a well characterized withdrawal syndrome with symptoms that include pain sensitivity, dysphoria, irritability, restlessness, insomnia, diarrhea and hyperventilation. In the present model, the naloxone-precipitated withdrawal syndrome is measured in rodents. Animals are chronically treated with a drug, e.g. morphine or heroin. Opiate withdrawal syndrome is elicited by an acute injection of the opiate antagonist Naloxone.
The effect of mazindol on heroin withdrawal syndrome elicited by naloxone was examined in Sprague-Dawley rats using a method similar to the one used by Jiang et al. (10),
Animals were subdivided into two groups. One group received heroin two i.p. injections/day for 12 consecutive days and a single injection on the 13th day (total: 25 injections) as exposed in Table 3 group received saline instead of heroin following the same protocol.
On day 13, animals received treatments and were tested according to the following time schedule: • T=0: i.p. injection of heroin (15 mg/kg) or vehicle. • T=2.5 h: animals individually placed in a transparent Plexiglas observation boxes (40×40×40 cm). • T=3.5 h: i.p. injection of treatment (see below). • T=4 h: i.p. injection of naloxone (5 mg/kg), start of test: observation of withdrawal symptoms as indicated in Table 4. • T=5 h: end of test, animals placed back into their home cages.
Animals received the following treatments at T 3.5 h (i.e. 30 min before injection of naloxone and observation of symptoms): • 1) Animals treated with saline during the intoxication period (days 1-12) and at T0 on day 13: • Saline group (N=8): saline (0.9% NaCl). • 2) Animals treated with […] during the intoxication period (days 1-12) and at T0 on day 13: • Hero group (N=14): saline (0.9% NaCl). • Amph 1 group (N=4): D-amphetamine (1 mg/kg). • Maz 0.125 group (N=5): mazindol (0.125 mg/kg). • Maz 0.25 group (N=6): mazindol (0.25 mg/kg). • Maz 0.5 group (N=6): mazindol (0.5 mg/kg). • Maz 1 group (N=6): mazindol (1 mg/kg). • Maz 2 group (N=5): mazindol (2 mg/kg).
A weighting factor was ascribed for each sign from which a score was calculated.
Examples: • Body weight before naloxone injection=241 g; after naloxone injection=236 g: • Weight loss score=2=100×(241−236)/241 • Number of escape attempts=8: • Score for escape attempts=2 • Profuse salivation present: • Score for profuse salivation
A global withdrawal score was then calculated: • Global score=the sum of the scores

[2] = tested on: C57BL/6J mice; test: Effect of treatment on the conditioned place preference induced by heroin; assay type: in vivo; settings: for Distance travelled in the drug-paired compartment / Distance travelled in the two compartments (Drug + Vehicle) / Distance travelled in the vehicle-paired compartment / Distance travelled, drug-paired minus vehicle-paired compartment / Time spent in the drug-paired compartment / Time spent in the vehicle-paired compartment / Time spent, drug-paired minus vehicle-paired compartment: mean
From the text: Conditioned place preference (CPP) is a widely used procedure for studying the potential addictive effect of drugs. CPP is based upon the tendency of rodents to approach a stimulus that has previously been paired with an incentive state induced by a drug. A drug that induces a CPP may be suspected to present reinforcing effects that could lead to addiction. Numerous addictive drugs, such as opiate agonists or stimulants induce a CPP and a behavioral sensitization.
The effect of mazindol on place preference was examined in C57BL/6J mice using a method similar to the one used by Schlussman et al. (9).
The third experiments consisted in examining the effects of mazindol and D-amphetamine (at doses chosen from results of the first part of the study) on the place preference induced by heroin at a dose chosen from results of the second experiment, which was 1.25 mg/kg. Mazindol (0.125, 0.25 and 0.5 mg/kg) and D-amphetamine (0.5 mg/kg) were tested.
Therefore, it was decided to perform an additional experiment to examine the effects on place preference induced by heroin of mazindol at 1 and 2 mg/kg and of D-amphetamine at 1 mg/kg.
(§1) Following the habituation session (on day 1), animals (N=72) were pseudo-randomly assigned to two groups, a Control group (N=12) and a Heroin group (N=60), in a way that there was no significant difference between the two groups for the total distance travelled in the apparatus and for the percentage of time spent and the percentage distance travelled in the grey compartment and in the striped compartment.
Animals received the following treatments immediately before drug sessions: • Control group: vehicle • Heroin group: heroin (1.25 mg/kg)
(§2) Following the last conditioning session, the Heroin group was pseudo-randomly divided into 5 groups (N=12/group) in a way that there was no significant difference between groups for the total distance travelled in the apparatus and for the percentage of time spent and the percentage distance travelled in the grey compartment and in the striped compartment in habituation session, for the distance travelled in the drug-paired and in the vehicle-paired compartments in conditioning sessions and for the proportion of striped drug-paired compartments.
Animals received the following treatments before preference session: • Control group: vehicle of mazindol, i.p. 60 min before testing. • Hero group: vehicle of mazindol, i.p. 60 min before testing. • Hero-A 0.5 group: D-amphetamine (0.5 mg/kg), i.p. 30 min before testing. • Hero-Mz 0.125 group: mazindol (0.125 mg/kg), i.p. 60 min before testing. • Hero-Mz 0.25 group: mazindol (0.25 mg/kg), i.p. 60 min before testing. • Hero-Mz 0.5 group: mazindol (0.5 mg/kg), i.p. 60 min before testing.
as §1, with “three” for “two”, “(N=12),” for “(N=12) and”, “(N=48) and a Mazindol group (N=12),” for “(N=60),”
Animals received the following treatments before drug sessions: • Control group: vehicle, i.p. immediately before session. • Heroin group: heroin (1.25 mg/kg), i.p. immediately before session. • MAZ 2 group: mazindol (2 mg/kg), i.p. 60 min before session.
as §2, with “into 4” for “into 5”, “there is” for “there was”, “compartments. […]” for “compartments.”

[3] = target: T1, 5-HT transporter(h) (Homo sapiens, UniProt P31645); test: Radioligand binding, 5-HT transporter (Eurofins CEREP); settings: 1.0 × 10^−05 M; antagonist radioligand
T1 construct: Eurofins CEREP
T1 sequence (P31645 whole entry): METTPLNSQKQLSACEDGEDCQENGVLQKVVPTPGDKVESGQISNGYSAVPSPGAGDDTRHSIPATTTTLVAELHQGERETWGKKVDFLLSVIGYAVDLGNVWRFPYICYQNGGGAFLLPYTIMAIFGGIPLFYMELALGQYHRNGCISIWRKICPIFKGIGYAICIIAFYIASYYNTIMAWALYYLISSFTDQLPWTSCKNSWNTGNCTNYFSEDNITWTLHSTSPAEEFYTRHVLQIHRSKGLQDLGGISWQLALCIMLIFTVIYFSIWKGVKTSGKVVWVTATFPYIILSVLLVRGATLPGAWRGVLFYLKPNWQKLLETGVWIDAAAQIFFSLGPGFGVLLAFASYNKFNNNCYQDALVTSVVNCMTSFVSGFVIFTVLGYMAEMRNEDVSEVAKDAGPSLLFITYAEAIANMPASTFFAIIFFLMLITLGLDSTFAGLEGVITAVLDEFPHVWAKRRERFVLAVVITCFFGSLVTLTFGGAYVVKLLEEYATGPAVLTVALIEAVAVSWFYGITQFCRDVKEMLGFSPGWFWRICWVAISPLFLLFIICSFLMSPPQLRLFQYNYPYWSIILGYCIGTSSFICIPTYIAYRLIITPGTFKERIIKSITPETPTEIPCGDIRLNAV
From the text: (§3) Table A discloses mazindol and Met tested at […] and the compound binding calculated as a percent inhibition of the binding of a radioactively labeled ligand specific for each target (Eurofins CEREP, France).
(§4) An inhibition or stimulation of more than 50% is considered a significant effect of the test compounds. Fifty percent is a common cut-off for further investigation (i.e. determination of IC50 or EC50 values from concentration-response curves).
(§5) The results are expressed as a percent of control specific binding obtained in the presence of the test compounds:
(§6) [formula] and as a percent inhibition of control specific binding obtained in the presence of the test compounds: […]

[4] = target: T2, H1(h) (Homo sapiens, UniProt P35367); test: Radioligand binding, H1 (Eurofins CEREP); settings: 1.0 × 10^−05 M; antagonist radioligand
T2 construct: Eurofins CEREP
T2 sequence (P35367 whole entry): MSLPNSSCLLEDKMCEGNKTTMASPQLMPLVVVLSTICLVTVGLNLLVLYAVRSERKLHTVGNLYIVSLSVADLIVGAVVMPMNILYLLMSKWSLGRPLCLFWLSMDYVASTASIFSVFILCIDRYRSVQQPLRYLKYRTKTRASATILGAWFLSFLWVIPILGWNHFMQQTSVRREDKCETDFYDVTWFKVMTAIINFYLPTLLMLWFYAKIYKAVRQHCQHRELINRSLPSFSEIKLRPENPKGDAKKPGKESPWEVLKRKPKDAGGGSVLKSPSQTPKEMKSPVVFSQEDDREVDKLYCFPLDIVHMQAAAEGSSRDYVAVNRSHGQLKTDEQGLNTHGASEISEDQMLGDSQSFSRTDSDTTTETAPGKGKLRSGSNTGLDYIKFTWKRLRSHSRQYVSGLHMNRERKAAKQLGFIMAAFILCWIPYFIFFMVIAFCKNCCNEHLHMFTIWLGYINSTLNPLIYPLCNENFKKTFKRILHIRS
From the text: as §3
as §4, with “curves). Tables B and C display the binding profiles for Mazindol and Met.” for “curves).”
as §5, §6

[5] = target: T3, 5-HT1A(h) (Homo sapiens, UniProt P08908); test: Radioligand binding, 5-HT1A (Eurofins CEREP); settings: 1.0 × 10^−05 M; agonist radioligand
T3 construct: Eurofins CEREP
T3 sequence (P08908 1-422): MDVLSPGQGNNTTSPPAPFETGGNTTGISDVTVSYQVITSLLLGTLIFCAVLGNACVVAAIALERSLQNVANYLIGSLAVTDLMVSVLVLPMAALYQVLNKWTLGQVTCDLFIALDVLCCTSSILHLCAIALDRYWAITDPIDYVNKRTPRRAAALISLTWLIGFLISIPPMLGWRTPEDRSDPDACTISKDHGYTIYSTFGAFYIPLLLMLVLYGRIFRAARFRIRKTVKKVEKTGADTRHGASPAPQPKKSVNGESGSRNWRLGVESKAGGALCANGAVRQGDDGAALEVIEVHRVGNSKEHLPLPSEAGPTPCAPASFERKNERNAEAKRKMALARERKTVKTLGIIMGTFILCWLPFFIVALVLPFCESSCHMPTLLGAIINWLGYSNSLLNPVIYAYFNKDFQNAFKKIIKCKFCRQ
From the text: as §3, §4, §5, §6

[6] = target: T4, μ (MOP) (h) (Homo sapiens, UniProt P35372); test: Radioligand binding, μ opioid receptor (Eurofins CEREP)
T4 construct: Eurofins CEREP
T4 sequence (P35372 whole entry): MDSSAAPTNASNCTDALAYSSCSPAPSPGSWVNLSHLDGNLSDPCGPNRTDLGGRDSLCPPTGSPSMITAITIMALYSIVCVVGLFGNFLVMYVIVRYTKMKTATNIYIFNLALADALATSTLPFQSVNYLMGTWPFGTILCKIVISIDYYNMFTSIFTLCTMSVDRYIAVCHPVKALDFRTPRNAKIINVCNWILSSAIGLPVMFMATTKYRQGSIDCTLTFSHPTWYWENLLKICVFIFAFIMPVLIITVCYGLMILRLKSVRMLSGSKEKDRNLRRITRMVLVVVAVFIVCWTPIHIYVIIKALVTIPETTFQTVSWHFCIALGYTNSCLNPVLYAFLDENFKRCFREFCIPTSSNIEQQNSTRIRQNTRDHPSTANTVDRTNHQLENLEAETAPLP
From the text: as §3
as §4, with “curves). Tables B and C display the binding profiles for Mazindol and Met.” for “curves).”
as §5, §6

[7] = target: T5, Norepinephrine transporter (h) (Homo sapiens, UniProt P23975); test: Radioligand binding, norepinephrine transporter (Eurofins CEREP); settings: 1.0 × 10^−05 M; antagonist radioligand
T5 construct: Eurofins CEREP
T5 sequence (P23975 whole entry): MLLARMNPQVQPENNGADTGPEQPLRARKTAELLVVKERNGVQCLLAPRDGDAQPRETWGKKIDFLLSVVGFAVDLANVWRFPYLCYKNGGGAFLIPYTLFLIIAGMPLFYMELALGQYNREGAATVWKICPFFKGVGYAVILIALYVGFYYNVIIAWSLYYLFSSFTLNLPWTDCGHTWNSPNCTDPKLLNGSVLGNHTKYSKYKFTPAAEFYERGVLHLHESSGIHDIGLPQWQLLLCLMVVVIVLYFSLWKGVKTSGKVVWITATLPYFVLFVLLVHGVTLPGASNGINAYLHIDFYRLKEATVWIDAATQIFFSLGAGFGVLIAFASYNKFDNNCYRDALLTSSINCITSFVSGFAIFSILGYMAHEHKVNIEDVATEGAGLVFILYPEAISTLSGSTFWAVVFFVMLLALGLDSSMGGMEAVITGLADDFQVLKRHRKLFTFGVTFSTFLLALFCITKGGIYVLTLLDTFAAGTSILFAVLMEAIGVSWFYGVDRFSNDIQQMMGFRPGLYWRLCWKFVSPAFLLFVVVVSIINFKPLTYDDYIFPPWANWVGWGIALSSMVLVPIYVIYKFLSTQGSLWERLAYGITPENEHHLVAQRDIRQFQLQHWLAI
From the text: as §3
as §4, with “curves). Tables B and C display the binding profiles for Mazindol and Met.” for “curves).”
as §5, §6

[8] = target: T6, k (KOP) (Rattus norvegicus, UniProt P34975); test: Radioligand binding, κ opioid receptor (Eurofins CEREP)
T6 construct: Eurofins CEREP
T6 sequence (P34975 whole entry): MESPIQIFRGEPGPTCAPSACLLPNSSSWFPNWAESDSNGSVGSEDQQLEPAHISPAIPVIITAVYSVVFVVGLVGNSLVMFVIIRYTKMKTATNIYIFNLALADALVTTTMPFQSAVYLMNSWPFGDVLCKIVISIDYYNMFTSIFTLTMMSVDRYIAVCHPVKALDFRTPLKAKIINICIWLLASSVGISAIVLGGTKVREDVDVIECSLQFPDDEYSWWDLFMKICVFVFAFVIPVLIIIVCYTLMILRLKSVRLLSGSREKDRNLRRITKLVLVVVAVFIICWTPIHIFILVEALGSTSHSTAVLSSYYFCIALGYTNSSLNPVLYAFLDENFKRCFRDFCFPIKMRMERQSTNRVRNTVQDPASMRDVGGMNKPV
From the text: as §3
as §4, with “curves). Tables B and C display the binding profiles for Mazindol and Met.” for “curves).”
as §5, §6

[9] = target: T7, M1(h) (Homo sapiens, UniProt P11229); test: Radioligand binding, M1 (Eurofins CEREP); settings: 1.0 × 10^−05 M; antagonist radioligand
T7 construct: Eurofins CEREP
T7 sequence (P11229 1-460): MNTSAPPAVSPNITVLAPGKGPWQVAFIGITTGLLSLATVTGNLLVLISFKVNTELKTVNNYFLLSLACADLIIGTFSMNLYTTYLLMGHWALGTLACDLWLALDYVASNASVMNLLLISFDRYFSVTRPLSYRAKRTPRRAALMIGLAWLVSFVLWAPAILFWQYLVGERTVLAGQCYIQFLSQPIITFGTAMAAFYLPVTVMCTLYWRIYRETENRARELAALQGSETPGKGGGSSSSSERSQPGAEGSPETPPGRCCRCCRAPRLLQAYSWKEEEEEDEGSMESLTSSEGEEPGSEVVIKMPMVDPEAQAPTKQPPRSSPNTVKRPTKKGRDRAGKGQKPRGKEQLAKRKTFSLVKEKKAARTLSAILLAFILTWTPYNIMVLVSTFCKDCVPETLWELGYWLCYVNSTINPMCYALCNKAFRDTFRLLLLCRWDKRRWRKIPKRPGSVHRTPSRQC
From the text: as §3
as §4, with “curves). Tables B and C display the binding profiles for Mazindol and Met.” for “curves).”
as §5, §6

[10] = target: T8, Dopamine transporter(h) (Homo sapiens, UniProt Q01959); test: Radioligand binding, dopamine transporter (Eurofins CEREP); settings: 1.0 × 10^−05 M; antagonist radioligand
T8 construct: Eurofins CEREP
T8 sequence (Q01959 whole entry): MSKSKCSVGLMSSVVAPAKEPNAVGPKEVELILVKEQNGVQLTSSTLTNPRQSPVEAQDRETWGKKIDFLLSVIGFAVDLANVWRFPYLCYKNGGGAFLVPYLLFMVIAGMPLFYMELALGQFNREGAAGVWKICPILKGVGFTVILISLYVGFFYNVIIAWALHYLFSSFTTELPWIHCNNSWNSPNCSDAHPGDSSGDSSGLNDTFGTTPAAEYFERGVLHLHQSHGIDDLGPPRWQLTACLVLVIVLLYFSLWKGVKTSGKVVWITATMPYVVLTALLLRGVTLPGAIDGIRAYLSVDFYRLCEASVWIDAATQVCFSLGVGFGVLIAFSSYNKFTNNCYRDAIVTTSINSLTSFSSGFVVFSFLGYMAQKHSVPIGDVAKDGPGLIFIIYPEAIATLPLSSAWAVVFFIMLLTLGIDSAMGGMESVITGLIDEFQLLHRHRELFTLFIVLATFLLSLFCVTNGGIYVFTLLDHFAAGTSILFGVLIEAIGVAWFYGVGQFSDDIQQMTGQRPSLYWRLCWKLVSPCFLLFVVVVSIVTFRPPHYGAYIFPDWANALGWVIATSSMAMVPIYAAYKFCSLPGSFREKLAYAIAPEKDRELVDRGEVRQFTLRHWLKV
From the text: as §3, §4, §5, §6

[11] = Amph 1: heroin-treated rats, D-amphetamine 1 mg/kg i.p. 30 min before naloxone 5 mg/kg, mean
[12] = Hero-A 0.5: heroin 1.25 mg/kg conditioning, D-amphetamine 0.5 mg/kg i.p. 30 min before preference session
[13] = Hero-A 1: heroin 1.25 mg/kg conditioning, D-amphetamine 1 mg/kg i.p. 30 min before preference session
[14] = 1.0 × 10^−05 M, agonist radioligand

C[C@H](N)Cc1ccccc1.C[C@H](N)Cc1ccccc1.O=S(=O)(O)O [D-amphetamine, D-amphetamine sulfate]
Abdominal constrictions score (Abd C) [1, 11]: 0.0 | Abnormal posture score (Ab P) [1, 11]: 0.0 | Chromodacryorrhea score (Chr) [1, 11]: 5.0 | Diarrhea score (Diarr) [1, 11]: 2.0 | Erection or ejaculation score (Er Ej) [1, 11]: 0.0 | Escape attempts score (Esc A) [1, 11]: 1.8 | Facial fasciculation or teeth chattering score (F F T C) [1, 11]: 2.0 | Global Score [1, 11]: 22.5 | Irritability score (Irrit) [1, 11]: 0.0 | Profuse salivation score (Pr Sal) [1, 11]: 5.3 | Ptosis score (Ptos) [1, 11]: 0.0 | Swallowing movements score (Sw M) [1, 11]: 1.0 | Weight loss score (W Los) [1, 11]: 2.0 | Wet dog shakes score (W D S) [1, 11]: 3.5 | effect on naloxone precipitated withdrawal symptoms of heroin ([1]; D-amphetamine 1 mg/kg): did not reduce the withdrawal symptoms of heroin | effect on chromodacryorrhea ([1]; D-amphetamine 1 mg/kg, increase not significant): tended to increase | effect on the heroin-induced increase of distance travelled in the drug-paired compartment ([2]; D-amphetamine 0.5 mg/kg): had no effect | effect on the heroin-induced increase of time spent in the drug-paired compartment ([2]; D-amphetamine 0.5 mg/kg): non-significantly reduced | effect on the heroin-induced increases of time spent and distance travelled in the drug-paired compartment ([2]; D-amphetamine 1 mg/kg): did not modify | effect on the place preference induced by heroin ([2]; D-amphetamine 0.5, 1 mg/kg i.p. before preference session): do not show a reliable effect | total distance travelled in two compartments (FIG. 3) ([2]; D-amphetamine 0.5 and 1 mg/kg i.p. before preference session): at 0.5 mg/kg, but not at 1 mg/kg decreased the total distance travelled in two compartments | Distance travelled in the drug-paired compartment [2, 12]: 6797.2 cm | Distance travelled in the two compartments (Drug + Vehicle) [2, 12]: 11379.9 cm | Distance travelled in the vehicle-paired compartment [2, 12]: 4582.7 cm | Distance travelled, drug-paired minus vehicle-paired compartment [2, 12]: 2214.6 cm | Time spent in the drug-paired compartment [2, 12]: 984.5 s | Time spent in the vehicle-paired compartment [2, 12]: 815.5 s | Time spent, drug-paired minus vehicle-paired compartment [2, 12]: 168.9 s | Distance travelled in the drug-paired compartment [2, 13]: 7416.7 cm | Distance travelled in the two compartments (Drug + Vehicle) [2, 13]: 13005.6 cm | Distance travelled in the vehicle-paired compartment [2, 13]: 5588.9 cm | Distance travelled, drug-paired minus vehicle-paired compartment [2, 13]: 1827.8 cm | Time spent in the drug-paired compartment [2, 13]: 1048.3 s | Time spent in the vehicle-paired compartment [2, 13]: 751.7 s | Time spent, drug-paired minus vehicle-paired compartment [2, 13]: 296.5 s

NCCN1C(=O)c2ccccc2C1(O)c1ccc(Cl)cc1 (stereo not drawn) [Mazindol Metabolite, 2-(2-Aminoethyl)-3-(p-chlorophenyl)-3-hydroxyphthalimidine]
percent inhibition of the binding of a radioactively labeled ligand [3]: 98.5% | percent inhibition of the binding of a radioactively labeled ligand [4]: 75.5% | percent inhibition of the binding of a radioactively labeled ligand [5]: 86.3% | percent inhibition of the binding of a radioactively labeled ligand [6, 14]: 87.9% | affinity for μ-opioid receptors ([6]; compared with amphetamines): higher affinity | percent inhibition of the binding of a radioactively labeled ligand [7]: 100.2% | affinity for κ-opioid receptors [8]: modest affinity | percent inhibition of the binding of a radioactively labeled ligand [8, 14]: 53.3% | percent inhibition of the binding of a radioactively labeled ligand [9]: 50.4% | percent inhibition of the binding of a radioactively labeled ligand [10]: 101%
